Data from PubChem BioAssay AID256 (DTP/NCI, 2004).
Where “and” joins values, the source holds several entries; their conditions need not be identical. Equal entries are not always repeated. Inconclusive results and toxic doses are left out. The calls were made as follows: active = survival T/C of 150% or more; inactive = T/C below 125% in these data.

Test system: CD2F1 mice, L1210 leukemia ip, survival T/C
Experiment: NCI In Vivo Anticancer Drug Screen. Data for tumor model L1210 Leukemia (intraperitoneal) in CD2F1 (CDF1) mice
Conditions: higher = longer survival
How it was run: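 Antitumor effect is scored in animals hosting a serially transplanted tumor. Values compare compound-dosed animals against vehicle-only controls as a simple quotient.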

[1] = endpoint: mean survival time, dose: 100.0 mg/kg/injection, schedule: Q01DX001 (ip), vehicle: saline
[2] = endpoint: mean survival time, dose: 200.0 mg/kg/injection, schedule: Q01DX001 (ip), vehicle: saline
[3] = endpoint: mean survival time, dose: 400.0 mg/kg/injection, schedule: Q01DX001 (ip), vehicle: saline
[4] = endpoint: mean survival time, dose: 50.0 mg/kg/injection, schedule: Q01DX009 (ip), vehicle: saline with Tween-80
[5] = endpoint: mean survival time, dose: 100.0 mg/kg/injection, schedule: Q01DX009 (ip), vehicle: saline with Tween-80
[6] = endpoint: mean survival time, dose: 200.0 mg/kg/injection, schedule: Q01DX009 (ip), vehicle: saline with Tween-80
[7] = endpoint: mean survival time, dose: 100.0 mg/kg/injection, schedule: Q04DX003 (ip), vehicle: saline with Tween-80
[8] = endpoint: mean survival time, dose: 200.0 mg/kg/injection, schedule: Q04DX003 (ip), vehicle: saline with Tween-80
[9] = endpoint: mean survival time, dose: 400.0 mg/kg/injection, schedule: Q01DX009 (ip), vehicle: saline with Tween-80
[10] = endpoint: mean survival time, dose: 400.0 mg/kg/injection, schedule: Q04DX003 (ip), vehicle: saline with Tween-80
[11] = endpoint: mean survival time, dose: 25.0 mg/kg/injection, schedule: Q01DX009 (ip), vehicle: saline with Tween-80
[12] = endpoint: mean survival time, dose: 25.0 mg/kg/injection, schedule: Q04DX003 (ip), vehicle: saline with Tween-80
[13] = endpoint: mean survival time, dose: 50.0 mg/kg/injection, schedule: Q04DX003 (ip), vehicle: saline with Tween-80
[14] = endpoint: mean survival time, dose: 100.0 mg/kg/injection, schedule: Q01DX001 (ip), vehicle: saline with Tween-80
[15] = endpoint: mean survival time, dose: 200.0 mg/kg/injection, schedule: Q01DX001 (ip), vehicle: saline with Tween-80
[16] = endpoint: mean survival time, dose: 50.0 mg/kg/injection, schedule: Q01DX009 (ip), vehicle: Klucel (hydroxypropylcellulose) (HPC)
[17] = endpoint: mean survival time, dose: 100.0 mg/kg/injection, schedule: Q01DX009 (ip), vehicle: Klucel (hydroxypropylcellulose) (HPC)
[18] = endpoint: mean survival time, dose: 200.0 mg/kg/injection, schedule: Q01DX009 (ip), vehicle: Klucel (hydroxypropylcellulose) (HPC)

Measured: T/C

CC(=O)OCC1OC(N(C(C)=O)c2nc(Cl)c3cc[nH]c3n2)C(OC(C)=O)C1OC(C)=O (stereo not drawn)
inactive: endpoint: mean survival time, dose: 12.5 mg/kg/injection, schedule: Q01DX005 (ip), vehicle: water 104 % of control | endpoint: mean survival time, dose: 25.0 mg/kg/injection, schedule: Q01DX005 (ip), vehicle: water 101 % of control | endpoint: mean survival time, dose: 50.0 mg/kg/injection, schedule: Q01DX005 (ip), vehicle: water 98 % of control | endpoint: mean survival time, dose: 100.0 mg/kg/injection, schedule: Q01DX005 (ip), vehicle: water 102 % of control | endpoint: mean survival time, dose: 200.0 mg/kg/injection, schedule: Q01DX005 (ip), vehicle: water 106 % of control

OC1(c2ccccc2)CCN(C/C=C/c2ccc(Cl)cc2)CC1
inactive: endpoint: median survival time, dose: 25.0 mg/kg/injection, schedule: Q04DX003 (ip), vehicle: saline with Tween-80 100 % of control | endpoint: median survival time, dose: 50.0 mg/kg/injection, schedule: Q04DX003 (ip), vehicle: saline with Tween-80 90 % of control

O=CNc1cc([N+](=O)[O-])ccc1OCc1ccccc1
inactive: [1] 100 % of control | [2] 97 % of control | [3] 96 % of control

COc1cc(OC)c(NC(=O)Oc2cc(C)c(Cl)c(C)c2Cl)cc1Cl
inactive: [4] 94 % of control | [5] 94 % of control | [6] 97 % of control

O=C1CCN(Cc2ccccc2)C(=O)N1
inactive: [4] 97 % of control | [5] 98 % of control | [7] 106 % of control | [6] 98 % of control | [8] 97 % of control

O=C1CCC(=O)N1O
inactive: [1] 104 % of control | endpoint: mean survival time, dose: 100.0 mg/kg/injection, schedule: Q04DX003 (ip), vehicle: saline 100 % of control | [2] 103 % of control | endpoint: mean survival time, dose: 200.0 mg/kg/injection, schedule: Q04DX003 (ip), vehicle: saline 102 % of control | [3] 103 % of control | endpoint: mean survival time, dose: 400.0 mg/kg/injection, schedule: Q04DX003 (ip), vehicle: saline 98 % of control

ICC1COC(CI)CO1 (stereo not drawn)
inactive: [5] 102 % of control | [7] 105 % of control | [6] 96 % of control | [8] 110 % of control | [9] 100 % of control | [10] 100 % of control

CCC/C(=N\Nc1ccc([N+](=O)[O-])cc1[N+](=O)[O-])c1ccccc1
inactive: [11] 94 % of control | [12] 104 % of control | [4] 105 % of control | [13] 115 % of control | [5] 94 % of control | [7] 98 % of control

O=P(CCC(O)c1ccccc1)(c1ccccc1)c1ccccc1 (stereo not drawn)
inactive: [4] 96 % of control | [5] 92 % of control | [7] 97 % of control | [8] 87 % of control

COc1cc2cc(c1Cl)N(C)C(=O)CC(OC(=O)C(C)N(C)C(=O)C(C)C)C1(C)OC1C(C)C1CC(O)(NC(=O)O1)C(OC)/C=C/C=C(C)C2 (stereo not drawn)
inactive: endpoint: mean survival time, dose: 1.2 micrograms/kg/injection, schedule: Q01DX009 (ip), vehicle: saline + alcohol 109 % of control | endpoint: mean survival time, dose: 2.5 micrograms/kg/injection, schedule: Q01DX009 (ip), vehicle: saline + alcohol 113 % of control | endpoint: mean survival time, dose: 5.0 micrograms/kg/injection, schedule: Q01DX009 (ip), vehicle: saline + alcohol 116 % of control | endpoint: mean survival time, dose: 10.0 micrograms/kg/injection, schedule: Q01DX009 (ip), vehicle: saline + alcohol 119 % of control

Nc1ccc(/C=C/C(=O)Nc2ccc(S(=O)(=O)F)cc2)cc1
inactive: [14] 98 % of control | [15] 95 % of control

O=C1OCC2C1Cc1cc(O)c(O)cc1C2c1ccc(O)c(O)c1 (stereo not drawn)
inactive: [16] 96 % of control | [17] 101 % of control | [18] 104 % of control

CCOC(=O)C(=O)Nc1c(C)noc1N
inactive: [14] 109 % of control | [17] 93 % of control | [15] 104 % of control | [18] 93 % of control | endpoint: mean survival time, dose: 400.0 mg/kg/injection, schedule: Q01DX001 (ip), vehicle: saline with Tween-80 97 % of control | endpoint: mean survival time, dose: 400.0 mg/kg/injection, schedule: Q01DX009 (ip), vehicle: Klucel (hydroxypropylcellulose) (HPC) 91 % of control

C=CCOc1ccc(C=O)cc1
inactive: [1] 102 % of control | [2] 102 % of control | [3] 97 % of control

CN(C)C1CCC(Nc2nc(Nc3cc(Cl)cc(Cl)c3)nc3ccccc23)CC1 (stereo not drawn)
inactive: [11] 102 % of control | [12] 101 % of control | [4] 96 % of control | [13] 103 % of control | [7] 98 % of control

CC1CC(C)(O)CC(C(O)CC2CC(=O)NC(=O)C2)C1=O (stereo not drawn)
inactive: endpoint: mean survival time, dose: 0.02 mg/kg/injection, schedule: Q01DX009 (ip), vehicle: saline 96 % of control and 102 % of control | endpoint: mean survival time, dose: 0.04 mg/kg/injection, schedule: Q01DX009 (ip), vehicle: saline 105 % of control and 107 % of control | endpoint: mean survival time, dose: 0.08 mg/kg/injection, schedule: Q01DX009 (ip), vehicle: saline 114 % of control | endpoint: mean survival time, dose: 0.16 mg/kg/injection, schedule: Q01DX009 (ip), vehicle: saline 117 % of control and 122 % of control

COC(=O)/C1=C/CCCCCC(=O)C1C(=O)OC (stereo not drawn)
inactive: [5] 96 % of control | [7] 96 % of control | [6] 96 % of control | [8] 100 % of control | [9] 93 % of control | [10] 96 % of control

O=C(OCC(OC(=O)c1ccccc1)C(OC(=O)c1ccccc1)C(COC(=O)c1ccccc1)OC(=O)c1ccccc1)c1ccccc1 (stereo not drawn)
inactive: [16] 97 % of control | [17] 97 % of control | [18] 86 % of control

CCOC(=O)N(C)c1ccc(Cl)cc1C(N)=O
inactive: endpoint: mean survival time, dose: 100.0 mg/kg/injection, schedule: Q04DX002 (ip), vehicle: saline with Tween-80 101 % of control | endpoint: mean survival time, dose: 200.0 mg/kg/injection, schedule: Q04DX002 (ip), vehicle: saline with Tween-80 97 % of control | endpoint: mean survival time, dose: 400.0 mg/kg/injection, schedule: Q04DX002 (ip), vehicle: saline with Tween-80 118 % of control

CCCCCCCCCCCCNC=O
inactive: endpoint: mean survival time, dose: 25.0 mg/kg/injection, schedule: Q01DX009 (ip), vehicle: saline 100 % of control | endpoint: mean survival time, dose: 50.0 mg/kg/injection, schedule: Q01DX009 (ip), vehicle: saline 103 % of control | endpoint: mean survival time, dose: 100.0 mg/kg/injection, schedule: Q01DX009 (ip), vehicle: saline 106 % of control

COc1cc(OC)c(NC(=O)OCCOc2ccc(Cl)cc2Cl)cc1Cl
inactive: [4] 92 % of control | [5] 88 % of control

Cc1ccc(C(=O)OCCN2CCN(c3ccccc3)CC2)c([N+](=O)[O-])c1OCc1ccccc1
inactive: endpoint: mean survival time, dose: 100.0 mg/kg/injection, schedule: Q04DX002 (ip), vehicle: other 98 % of control | endpoint: mean survival time, dose: 200.0 mg/kg/injection, schedule: Q04DX002 (ip), vehicle: other 91 % of control | endpoint: mean survival time, dose: 400.0 mg/kg/injection, schedule: Q04DX002 (ip), vehicle: other 91 % of control

CN=C(N)N/N=C/c1ccccc1
inactive: endpoint: mean survival time, dose: 7.5 mg/kg/injection, schedule: Q04DX003 (ip), vehicle: saline 95 % of control | endpoint: mean survival time, dose: 15.0 mg/kg/injection, schedule: Q04DX003 (ip), vehicle: saline 97 % of control | endpoint: mean survival time, dose: 30.0 mg/kg/injection, schedule: Q04DX003 (ip), vehicle: saline 112 % of control

CCCCCCOc1ccc(/C=N\N=C\c2ccc(OCCCCCC)cc2)cc1
inactive: [7] 91 % of control | [8] 89 % of control | [10] 91 % of control
